row,melting point [°C],Compound
1,118 to 119,O=[N+]([O-])c1ccc(Cc2nc3c(s2)CCCC3)cc1
2,220 to 221,CC1CC(=O)NN=C1c1ccc(N2CCN(c3ncccn3)CC2)c(N)c1 (stereo not given)
3,166 to 167,CCN1OCCC(=Cc2cc(C(C)(C)C)c(O)c(C(C)(C)C)c2)C1=O
4,185 to 189,Cc1ccc(-c2cccc(OC3SCC(O)C(O)C3O)c2)nc1 (stereo not given)
5,100 to 103,OC(Cn1cncn1)(Cn1cnc(Cc2ccc(F)cc2)n1)c1ccccc1C(F)(F)F (stereo not given)
6,111 to 114,COC(=O)c1ccc(N=Cc2cccc(F)c2)cn1
7,97 to 110,Cn1c(=O)[nH]c(=O)n(-c2cc(Oc3ncc(C(F)(F)F)cc3Cl)ccc2Br)c1=O
8,140 to 141,CC(C)C[C@H](NC(=O)[C@H](Cc1c[nH]c2ccccc12)NC(=O)OC(C)(C)C)C(=O)CCl
9,198 to 201,NS(=O)(=O)c1ccc(-n2nc(CCl)cc2-c2ccc(Cl)cc2)cc1
10,218 to 220,COc1ccc(C(=O)NNC(=O)N(C)C)cc1
11,198 to 200,CON1C=C2N=NC3=C(N2C1)N(c1ccccc1Cl)CC(C)=C3
12,121 to 123,COc1ccc(-n2c(Br)ccc2-c2ccc(S(N)(=O)=O)cc2)cc1
13,44 to 47,O=Cc1ccc(OS(=O)(=O)C(F)(F)F)c2ccccc12
14,202 to 205,COc1ccc2c(c1)sc1nc(CO)cn12
15,117 to 118,N#Cc1c(Cl)cncc1Cl
16,> 250,NC(=O)Nc1ncc(-c2ccncc2)cn1
17,116 to 119,CC(C)NCC#CC(O)c1ccccc1-c1ccccc1 (stereo not given)
18,232 to 235,COCc1cc(OC)c(-c2ccc(C[C@H](NC(=O)c3c(Cl)cccc3Cl)C(=O)O)cc2)c(OC)c1
19,198 to 199,O=S(=O)(Cc1cn(C23CC4CC(CC(C4)C2)C3)nn1)c1cc(Cl)ccc1Cl
20,147,Nc1nc2ccc(OCC(F)(F)C(F)(F)F)cc2s1
21,157 to 159,CCCc1nn(C)c2c(=O)[nH]c(-c3cc(Br)ccc3OCC)nc12
22,131 to 132,Cc1nc(CCCCn2cnc3c2c(=O)n(C)c(=O)n3C)no1
23,174 to 175,O=C(c1ccccc1)c1cnn2cccnc12
24,227 to 228,CCOC(=O)C(C#N)=CNc1ccc([N+](=O)[O-])cc1

row,melting point [°C],Compound
1,158 to 159,COc1nc(N)nc(C2CC2)n1
2,154 to 156,CC1CCN(CCNc2ccnc3cc(Cl)ccc23)CC1
3,248,CC(CO)(CO)NS(=O)(=O)c1cccc(NC(=O)c2cnn3c(C(F)(F)F)cc(-c4ccc(C(F)(F)F)cc4)nc23)c1
4,190 to 192,O=C(c1ccc(F)cc1)C1CCN(CCCCn2c(=O)[nH]c3cscc3c2=O)CC1
5,176 to 179,COc1cc(/C=C/C=C/C(=O)NCCCC2CNCCC2c2c[nH]c3ccccc23)cc(OC)c1O (stereo not given)
6,104 to 105,C=C1N(C(C)(C)C)C(=O)OC12CCN(C(=O)CC)CC2
7,191 to 192,O=C(O)C(=O)c1ccc(OCCOc2cc3ccccc3cc2O)cc1
8,117 to 120,CN1C(=O)C(C(=N)c2ccccc2)=C(O)CC1c1ccccc1 (stereo not given)
9,101 to 102,Fc1ccc(N=c2sc3ccc(Cl)cc3s2)cc1
10,184 to 185,O=c1c(N2CCCCC2)nc2ccccc2n1-c1ccc(Cl)cc1
11,90 to 92,CCCCN(C(=O)c1ccccc1)C(=NC(=O)c1ccccc1)Nc1ccc(C(N)=O)cc1
12,104 to 106,CNc1cn(-c2cccnc2)nc1Cl
13,236 to 238,Cn1cc(-c2nc3c(N[C@H]4[C@@H](C(N)=O)[C@@H]5C=C[C@H]4C5)ccnc3[nH]2)cn1
14,207 to 210,CS(=O)(=O)Nc1ccc(C(=O)c2[nH]c3cc(Cl)ccc3c2CC(=O)O)cc1
15,142 to 144,COC(=O)CCSc1c(C(N)=O)sc2ccc(OC)cc12
16,59 to 60,CC(=O)NCCn1cccc1
17,175 to 178,CC1(C)Oc2ccc(CO)cc2[C@@H](N2CCCC2=O)[C@@H]1O (relative stereo)
18,120 to 121,Fc1cccc(-c2nc(-c3ccccn3)no2)c1F
19,131 to 132,CCCCc1c(CNC(=O)OC(C)(C)C)c(CC(C)C)nc2ccc(OCc3ccccc3)cc12
20,225 to 227,Cc1ccc(-c2ccc(S(C)(=O)=O)cc2)n1-c1ccc(-c2ccc[nH]2)cc1
21,135 to 139,COc1ccccc1C1(CC(=O)O)C(=O)Nc2ccc(Cl)cc21 (stereo not given)
22,128 to 130,C[C@H](C#Cc1scc(Cc2ccc(F)cc2)c1Cc1ccc(F)cc1)N(O)C(N)=O
23,191 to 193,CN(C)CCOc1ccc2sc(C(=O)Nc3ccccc3N)cc2c1
24,41 to 42,CC1(C)C=C(I)C(=O)C(C)(C)C1

row,melting point [°C],Compound
1,124,c1cnc(N2CCN(CCCCn3cccn3)CC2)nc1
2,134 to 135,COC(=O)C1CNCCN1C(=O)c1cc(OC)c(OC)c(OC)c1 (stereo not given)
3,135 to 140,CC(=O)c1c[nH]c2cc(O)ccc12
4,100 to 101,NC(=O)CC(O)CCCCCNC(=O)OCc1ccccc1 (stereo not given)
5,210,Cn1cnnc1C(N)(c1ccc(Cl)cc1)c1ccc2c(c1)c(-c1cccc(Cl)c1)cc(=O)n2C (stereo not given)
6,243 to 245,Cc1c(S(N)(=O)=O)c(-c2nnc(S)o2)nn1C
7,244 to 246,CCC1(NC2=NS(=O)(=O)c3sc(Cl)cc3N2)CCC1
8,102 to 104,CCCCCCCCCCCCCCCCCC(=O)N1CCN(c2cc(N3CCCC3)nc(N3CCCC3)n2)CC1
9,109 to 112,CC(C)(C)C(=O)C(O)C(OS(=O)(=O)C(F)(F)F)C1OC(O)(C(=O)C(C)(C)C)C(O)(C(=O)C(C)(C)C)C1(O)C(=O)C(C)(C)C (stereo not given)
10,162,COc1ccc(N(C)C(=O)CN(C(=O)CN2C(=O)c3ccccc3C2=O)c2ccccc2)cc1
11,96 to 98,CS(=O)(=O)NCCn1nccc1-c1ccc(Oc2ccc(F)cc2)cc1
12,279 to 282,O=c1[nH]c2ccc(I)cc2cc1[N+](=O)[O-]
13,166 to 168,COC(=O)C(OC)c1nsc2ccc(-n3c(=O)cc(C(F)(F)F)n(C)c3=O)cc12 (stereo not given)
14,76 to 77,Cc1cc2c(cc1CO)CCC(CCN1CCCC1)=C2
15,130 to 131,CCOc1nn(-c2ccc(C(F)(F)F)cn2)cc1CCCOc1ccc(Cl)cc1CC(=O)O
16,242 to 244,Cc1c(-c2ccccc2)n(-c2ccc(S(C)=O)cc2)c(-c2ccccc2)cc1=O (stereo not given)
17,260 to 262,O=C1NCCc2c(-c3cccnc3)[nH]c3cccc1c23
18,142 to 143,CCCCCCCCCC(=O)c1ccc(O)c(C(=O)Nc2ccc([N+](=O)[O-])cc2)c1
19,84 to 89,CCC1(CC)C(=O)N(C(C)C)CC(C)(C)N1OC(C)(C)C#N
20,175 to 179,Cc1ccc2c(c1)NC(=O)c1cc(C)sc1O2
21,89.5 to 91.5,COc1ccc(CON(CCCBr)S(=O)(=O)c2ccc(C)cc2)cc1
22,90 to 91,CN(C)CCCCCCCOc1ccc2oc(-c3ccccc3)cc(=O)c2c1
23,65 to 66,Nc1cccc(SCc2ccccc2)n1
24,158 to 161,C[C@H](O)C#Cc1cc(CN2CCOCC2)cc2c(=O)c(C(=O)NCc3ccc(Cl)cc3)cn(C)c12

row,melting point [°C],Compound
1,112 to 114,CCn1cc2c3c(cccc31)CN(C(=O)OCc1ccccc1)C2
2,108 to 110,Cc1c(NC(=O)CC(C)(C)C)cc2c(c1C)OC(C)(C)C2(O)c1ccco1 (stereo not given)
3,251 to 253,COc1cc2cc3ncc(C#N)c(Nc4ccc(Oc5ccccc5)c(Cl)c4)c3cc2cc1OCCN1CCOCC1
4,162,COc1cc(OC)nc(N(C)C(=O)NS(=O)(=O)c2ccccc2OC(F)(F)F)n1
5,87 to 89,COC(=O)c1ccc(S(C)(=O)=O)c(-c2ccon2)c1C
6,175 to 177,CNS(=O)(=O)c1ccccc1Nc1nc(Nc2ccc3c(c2)CCCC(=O)N3C)ncc1Cl
7,210 to 212,Cc1cc(Oc2ccc([N+](=O)[O-])cc2)c2cc3c(cc2n1)OCO3
8,160,Cc1ccc(C=Nc2c(-c3ccccc3C)nc3c4ccccc4ccn23)cc1
9,195,COc1cccc(-c2nc(N)ncc2-c2ccc(=O)n(C)n2)c1
10,196 to 200,CCOC(=O)C1=C(C)Nc2n[nH]cc2C1c1ccccc1OC (stereo not given)
11,172 to 173,Cc1cccc2cc(C(=O)N(C)C)c(C=CNc3ccc(F)cc3)nc12
12,98 to 100,Cn1cnc2c1c(=O)n(CCCCCCO)c(=O)n2C
13,158 to 159,CC1=C(C(=O)OC(C)C)C(c2cccc([N+](=O)[O-])c2)N(C(=O)OCc2ccccc2)C(=O)N1 (stereo not given)
14,143 to 146,COc1ccc2c(c1)C(Cc1ccnc(F)c1)(Cc1ccnc(F)c1)c1ccccc1-2
15,180 to 181,CNc1cc(F)ccc1C(=O)O
16,234,Cc1nc2c(O)c(CCC(=O)c3cccs3)c(C(=O)N(C)C)cn2c1C
17,276 to 277,CCOc1c(C=O)sc(NC(C)=O)c1C#N
18,119 to 120,CC(=O)NC(COCc1cc(C)cc(C)c1)Cc1cccc2ccccc12 (stereo not given)
19,134 to 136,CN1CCN(C(=O)c2ccc3n2Cc2ccccc2N(C(=O)c2ccc(C4CCCCC4)cc2)C3)CC1
20,259 to 263,Cc1c(-c2ccccc2)c(N2CC[C@H](N(C)C)C2)c2oc(-c3ccccc3N)nc2c1C#N
21,257 to 259,Cc1nc(N)c2nc(CO)n(NC(C)C)c2c1C
22,162,COc1ccc(-c2nnc(C(C)C)n2-c2ccc(OC)cc2)cc1
23,106,COc1ccc(-c2nc(Sc3ccc(F)cc3)[nH]c2-c2ccc(OC)cc2)cc1
24,61 to 63,CCOCCCOc1ccc2c(c1)C(N(C)S(C)(=O)=O)CC(C)(C)O2 (stereo not given)

row,Compound,melting point [°C]
1,CNC(=C[N+](=O)[O-])NCc1ccc(Cl)nc1Cl,211 to 213
2,CC(NC(=O)C(F)c1cc(F)cc(F)c1)C(=O)NC1N=C(c2ccccc2)c2ccccc2N(C)C1=O (stereo not given),119 to 120
3,N#CC1CN1C(=O)CCC(N)=O (stereo not given),68 to 72
4,CNC(=O)Oc1ccc2c(c1)c1c(n2C)C2(CC1)CCN(Cc1ccccc1)CC2,189 to 190
